Assay results as given in patent publication US20020137929A1, “1 - (3-heterocyclylphenyl) isothiourea, -isourea, -guanidine and -amidine herbicidal agents” (Intellectual Property Department, BASF Aktiengesellschaft, priority 1998, published 2002).

Assays:
[1] = test system: SAGPY (Arrowhead (Pygmaea)); assay: Preemergence weed control under flooded paddy conditions; assay type: in vivo, Sagittaria pygmaea; settings: rated 3-4 weeks after treatment
Description: (§1) Results of herbicide evaluation are expressed on a rating scale (0-9). The scale is based upon a visual observation of plant stand, vigor, malformation, size, chlorosis and overall plant appearance as compared with a control.
(§2) Preemergence herbicidal activity under flooded paddy conditions is determined as follows: plant seeds or propagating organs are planted in the top 0.5 cm of silt loam soil in 32 oz. plastic containers with a diameter of 10.5 cm and no drainage holes. Water is added to these containers and maintained at 1.5 to 3 cm above the soil surface for the duration of the experiment. The test compounds are applied as aqueous/acetone mixtures 50/50 v/v pipetted directly into the flood water to give the equivalent of about 0.0313 to 0.500 kg/ha of active ingredient. The treated containers are placed on greenhouse benches and cared for in accordance with conventional greenhouse procedures. Three to four weeks after treatment, the test is terminated and each container is examined and herbicidal effect rated according to the rating system provided in Example 37. The compounds evaluated are reported by compound number given in Example 37.
(§3) Plant species employed in this example are reported by header abbreviation, common name and scientific name.

ECHCG (Barnyardgrass) = assay: Postemergence herbicidal evaluation; assay type: in vivo, Echinochloa crus-galli; settings: postemergence
Description: (§4) In the tests, seedling plants are grown in jiffy flats for about two weeks. The test compounds are dispersed in 50/50 acetone/water mixtures containing 0.5% TWEEN®20, a polyoxyethylene sorbitan monolaurate surfactant of Atlas Chemical Industries, in sufficient quantities to provide the equivalent of about 0.0156 kg to 0.500 kg per hectare of active compound when applied to the plants through a spray nozzle operating at 40 psi for a predetermined time. After spraying, the plants are placed on greenhouse benches and are cared for in accordance with conventional greenhouse procedures. From four to five weeks after treatment, the seedling plants are examined and rated according to the rating system set forth below. Where more than one test is involved for a given compound, the data are averaged.
(§5) Plant species employed in these evaluations are reported by header abbreviation, common name and scientific name.
as §1

MOOVA (Monochoria) = assay: Preemergence weed control under flooded paddy conditions; assay type: in vivo, Monochoria vaginalis; settings: rated 3-4 weeks after treatment
Description: as §1, §2, §3

ORYSAT (Rice, Tebonnet) [2] = assay: Postemergence herbicidal evaluation; assay type: in vivo, Oryza sativa, (L.) Tebonnet; settings: postemergence
Description: as §4, §5, §1

ORYSAT (Rice, Tebonnet) [3] = assay: Preemergence herbicidal evaluation; assay type: in vivo, Oryza sativa, (L.) Tebonnet; settings: rated 4-5 weeks after treatment
Source text: as §1
(§6) The preemergence herbicidal activity of the test compounds of the present invention is exemplified by the following tests in which the seeds of a variety of monocotyledonous and dicotyledonous plants are separately mixed with potting soil and planted on top of approximately one inch of soil in separate pint cups. After planting, the cups are sprayed with the selected aqueous acetone solution containing test compound in sufficient quantity to provide the equivalent of about 0.0156 to 0.500 kg per hectare of test compound per cup. The treated cups are then placed on greenhouse benches, watered and cared for in accordance with conventional greenhouse procedures. From four to five weeks after treatment, the tests are terminated and each cup is examined and rated according to the rating system provided in Example 37.
(§7) The compounds evaluated are reported by compound number given in Example 37.

CYPIR (Rice Flatsedge) = assay: Preemergence weed control under flooded paddy conditions; assay type: in vivo, Cyperus iria; settings: rated 3-4 weeks after treatment
Description: as §1, §2, §3

[4] = test system: TRZAWR (Wheat, Winter, cv Riband); assay: Preemergence herbicidal evaluation; assay type: in vivo, Triticum aestivum; settings: rated 4-5 weeks after treatment
Source text: as §1, §6, §7

ZEAMX (Corn, Field) = assay: Preemergence herbicidal evaluation; assay type: in vivo, Zea mays; settings: rated 4-5 weeks after treatment
Source text: as §1, §6, §7

SETVI (Foxtail, Green) = assay: Preemergence herbicidal evaluation; assay type: in vivo, Setaria viridis; settings: rated 4-5 weeks after treatment
Source text: as §1, §6, §7

CASOB (Sicklepod) = assay: Postemergence herbicidal evaluation; assay type: in vivo, Cassia obtusifolia; settings: postemergence
Outline: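 Rate range approx. 0.0156–0.500 kg/ha. Foliar application at 40 psi to ~2-week seedlings; surfactant 0.5% TWEEN 20 in 50/50 acetone/water. Evaluation 4–5 wk post-treatment by 0–9 visual injury score, means of replicate tests.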

[5] = test system: GLXMAW (Soybean, Williams); assay: Preemergence herbicidal evaluation; assay type: in vivo, Glycine max, (L.) Merr. cv Williams; settings: rated 4-5 weeks after treatment
Source text: as §1, §6, §7

GALAP (Galium) = assay: Preemergence herbicidal evaluation; assay type: in vivo, Galium aparine; settings: rated 4-5 weeks after treatment
Source text: as §1, §6, §7

[6] = test system: CHEAL (Lambsquarters, Common); assay: Postemergence herbicidal evaluation; assay type: in vivo, Chenopodium album; settings: postemergence
Description: as §4, §5, §1

Cn1c(C(F)(F)F)cc(=O)n(-c2cc(N=C3SCC(=O)N3Cc3ccccc3)c(Cl)cc2F)c1=O [Compound 26]
Herbicidal rating SAGPY ([1]; 0.0313 kg/ha): 0.0
Herbicidal rating SAGPY ([1]; 0.0625 kg/ha): 4.0
Herbicidal rating SAGPY ([1]; 0.1250 kg/ha): 5.0
Herbicidal rating SAGPY ([1]; 0.2500 kg/ha): 7.0
ECHCG herbicidal rating (ECHCG (Barnyardgrass); rate 0.0156 kg/ha): 0.0
ECHCG herbicidal rating (ECHCG (Barnyardgrass); rate 0.0313 kg/ha): 0.0
ECHCG herbicidal rating (ECHCG (Barnyardgrass); rate 0.0625 kg/ha): 0.0
Herbicidal rating MOOVA (MOOVA (Monochoria); 0.0313 kg/ha): 9.0
Herbicidal rating MOOVA (MOOVA (Monochoria); 0.0625 kg/ha): 9.0
Herbicidal rating MOOVA (MOOVA (Monochoria); 0.1250 kg/ha): 9.0
Herbicidal rating MOOVA (MOOVA (Monochoria); 0.2500 kg/ha): 9.0
ORYSAT herbicidal rating (ORYSAT (Rice, Tebonnet) [2]; rate 0.0156 kg/ha): 0.5
ORYSAT herbicidal rating (ORYSAT (Rice, Tebonnet) [2]; rate 0.0313 kg/ha): 1.0
ORYSAT herbicidal rating (ORYSAT (Rice, Tebonnet) [2]; rate 0.0625 kg/ha): 1.5
Preemergence herbicidal rating ORYSAT (ORYSAT (Rice, Tebonnet) [3]; rate 0.0156 kg/ha): 0.0
Preemergence herbicidal rating ORYSAT (ORYSAT (Rice, Tebonnet) [3]; rate 0.0313 kg/ha): 0.0
Preemergence herbicidal rating ORYSAT (ORYSAT (Rice, Tebonnet) [3]; rate 0.0625 kg/ha): 0.0
Preemergence herbicidal rating ORYSAT (ORYSAT (Rice, Tebonnet) [3]; rate 0.1250 kg/ha): 0.0
Preemergence herbicidal rating ORYSAT (ORYSAT (Rice, Tebonnet) [3]; rate 0.2500 kg/ha): 0.0
Herbicidal rating CYPIR (CYPIR (Rice Flatsedge); 0.0313 kg/ha): 2.0
Herbicidal rating CYPIR (CYPIR (Rice Flatsedge); 0.0625 kg/ha): 4.0
Herbicidal rating CYPIR (CYPIR (Rice Flatsedge); 0.1250 kg/ha): 7.0
Herbicidal rating CYPIR (CYPIR (Rice Flatsedge); 0.2500 kg/ha): 9.0
Preemergence herbicidal rating TRZAWR ([4]; rate 0.0156 kg/ha): 0.0
Preemergence herbicidal rating TRZAWR ([4]; rate 0.0313 kg/ha): 0.0
Preemergence herbicidal rating TRZAWR ([4]; rate 0.0625 kg/ha): 0.0
Preemergence herbicidal rating TRZAWR ([4]; rate 0.1250 kg/ha): 0.0
Preemergence herbicidal rating TRZAWR ([4]; rate 0.2500 kg/ha): 1.0
Preemergence herbicidal rating ZEAMX (ZEAMX (Corn, Field); rate 0.0156 kg/ha): 0.0
Preemergence herbicidal rating ZEAMX (ZEAMX (Corn, Field); rate 0.0313 kg/ha): 0.0
Preemergence herbicidal rating ZEAMX (ZEAMX (Corn, Field); rate 0.0625 kg/ha): 2.0
Preemergence herbicidal rating ZEAMX (ZEAMX (Corn, Field); rate 0.1250 kg/ha): 4.0
Preemergence herbicidal rating ZEAMX (ZEAMX (Corn, Field); rate 0.2500 kg/ha): 5.0
Preemergence herbicidal rating SETVI (SETVI (Foxtail, Green); rate 0.0156 kg/ha): 0.0
Preemergence herbicidal rating SETVI (SETVI (Foxtail, Green); rate 0.0313 kg/ha): 0.0
Preemergence herbicidal rating SETVI (SETVI (Foxtail, Green); rate 0.0625 kg/ha): 0.0
Preemergence herbicidal rating SETVI (SETVI (Foxtail, Green); rate 0.1250 kg/ha): 5.0
Preemergence herbicidal rating SETVI (SETVI (Foxtail, Green); rate 0.2500 kg/ha): 9.0
CASOB herbicidal rating (CASOB (Sicklepod); rate 0.0156 kg/ha): 0.0
CASOB herbicidal rating (CASOB (Sicklepod); rate 0.0313 kg/ha): 0.0
CASOB herbicidal rating (CASOB (Sicklepod); rate 0.0625 kg/ha): 0.0
Preemergence herbicidal rating GLXMAW ([5]; rate 0.0156 kg/ha): 0.0
Preemergence herbicidal rating GLXMAW ([5]; rate 0.0313 kg/ha): 0.0
Preemergence herbicidal rating GLXMAW ([5]; rate 0.0625 kg/ha): 0.0
Preemergence herbicidal rating GLXMAW ([5]; rate 0.1250 kg/ha): 0.0
Preemergence herbicidal rating GLXMAW ([5]; rate 0.2500 kg/ha): 1.0
Preemergence herbicidal rating GALAP (GALAP (Galium); rate 0.0156 kg/ha): 0.0
Preemergence herbicidal rating GALAP (GALAP (Galium); rate 0.0313 kg/ha): 0.0
Preemergence herbicidal rating GALAP (GALAP (Galium); rate 0.0625 kg/ha): 0.0
Preemergence herbicidal rating GALAP (GALAP (Galium); rate 0.1250 kg/ha): 9.0
Preemergence herbicidal rating GALAP (GALAP (Galium); rate 0.2500 kg/ha): 9.0
CHEAL herbicidal rating ([6]; rate 0.0156 kg/ha): 9.0
CHEAL herbicidal rating ([6]; rate 0.0313 kg/ha): 9.0
CHEAL herbicidal rating ([6]; rate 0.0625 kg/ha): 9.0
